According to PubChem BioAssay (NCI):
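At the GI50, growth is halved. The concentration for full growth arrest is given as TGI.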

Tests used:
Test in all cases: inhibition of tumour cell growth, NCI panel, 384-well format
[1] = system: NCI-H460 NSCLC
[2] = system: PC-3 prostate
[3] = system: COLO 205 colon
[4] = system: MDA-MB-231 breast
[5] = system: HT29 colon
[6] = system: MALME-3M melanoma
[7] = system: OVCAR-8 ovarian
[8] = system: SF-295 CNS
[9] = system: DU-145 prostate
[10] = system: K-562 leukemia
[11] = system: CAKI-1 renal
[12] = system: NCI-H322M lung
[13] = system: A498 renal
[14] = system: MCF7 breast
[15] = system: LOX IMVI melanoma
[16] = system: MOLT-4 leukemia
[17] = system: BT-549 breast
[18] = system: MDA-MB-435 melanoma
[19] = system: SNB-75 CNS
[20] = system: SNB-19 CNS
[21] = system: ACHN renal
[22] = system: NCI-H226 lung
[23] = system: RPMI-8226 leukemia
[24] = system: OVCAR-3 ovarian
[25] = system: HOP-62 NSCLC
[26] = system: M14 melanoma
[27] = system: 786-0 renal
[28] = system: SR leukemia
[29] = system: SK-MEL-5 melanoma
[30] = system: MDA-MB-468 breast
[31] = system: UACC-257 melanoma
[32] = system: SF-268 CNS
[33] = system: HCT-15 colon
[34] = system: T-47D breast
[35] = system: CCRF-CEM leukemia
[36] = system: SF-539 CNS
[37] = system: SN12C renal
[38] = system: TK-10 renal
[39] = system: HOP-92 NSCLC
[40] = system: SK-OV-3 ovarian
[41] = system: A549 NSCLC
[42] = system: KM12 colon
[43] = system: OVCAR-5 ovarian
[44] = system: IGROV1 ovarian
[45] = system: OVCAR-4 ovarian
[46] = system: UO-31 renal
[47] = system: RXF 393 renal
[48] = system: NCI-H522 lung
[49] = system: SW-620 colon
[50] = system: HCC-2998 colon
[51] = system: NCI/ADR-RES ovarian
[52] = system: SK-MEL-28 melanoma
[53] = system: UACC-62 melanoma
[54] = system: HL-60(TB) leukemia
[55] = system: HS 578T breast
[56] = system: NCI-H23 lung
[57] = system: EKVX NSCLC

COc1cc2c(cc1-c1c(C)noc1C)cc(C)c(=O)n2Cc1ccccn1
GI50 [1]: 2120 nM
TGI [1]: 17500 nM
GI50 [2]: 1820 nM
TGI [2]: > 100000 nM
GI50 [3]: 498 nM
TGI [3]: 13300 nM
GI50 [4]: 367 nM
TGI [4]: 16200 nM
GI50 [5]: 376 nM
TGI [5]: 5680 nM
GI50 [6]: 274 nM
TGI [6]: 2180 nM
GI50 [7]: 430 nM
TGI [7]: 9450 nM
GI50 [8]: 1750 nM
TGI [8]: 24900 nM
GI50 [9]: 6450 nM
TGI [9]: > 100000 nM
GI50 [10]: 448 nM
TGI [10]: 2780 nM
GI50 [11]: 342 nM
TGI [11]: 18500 nM
GI50 [12]: 1090 nM
TGI [12]: 31700 nM
GI50 [13]: 418 nM
TGI [13]: 12400 nM
GI50 [14]: 257 nM
TGI [14]: 2480 nM
GI50 [15]: 321 nM
TGI [15]: 1090 nM
GI50 [16]: 616 nM
TGI [16]: 1920 nM
GI50 [17]: 262 nM
TGI [17]: 1680 nM
GI50 [18]: 1010 nM
TGI [18]: 2420 nM
GI50 [19]: 487 nM
TGI [19]: > 100000 nM
GI50 [20]: 1130 nM
TGI [20]: 23600 nM
GI50 [21]: 1050 nM
TGI [21]: > 100000 nM
GI50 [22]: 646 nM
TGI [22]: 5740 nM
GI50 [23]: 106 nM
TGI [23]: 316 nM
GI50 [24]: 374 nM
TGI [24]: 1650 nM
GI50 [25]: 415 nM
TGI [25]: 16500 nM
GI50 [26]: 600 nM
TGI [26]: 21800 nM
GI50 [27]: 812 nM
TGI [27]: 19200 nM
GI50 [28]: 140 nM
TGI [28]: 1150 nM
GI50 [29]: 527 nM
TGI [29]: 2380 nM
GI50 [30]: 226 nM
TGI [30]: 693 nM
GI50 [31]: 373 nM
TGI [31]: 4710 nM
GI50 [32]: 2010 nM
TGI [32]: 11300 nM
GI50 [33]: 282 nM
TGI [33]: 1550 nM
GI50 [34]: 313 nM
TGI [34]: 3060 nM
GI50 [35]: 338 nM
TGI [35]: 1650 nM
GI50 [36]: 805 nM
TGI [36]: 7540 nM
GI50 [37]: 2180 nM
TGI [37]: 21500 nM
GI50 [38]: 367 nM
TGI [38]: 3810 nM
GI50 [39]: 234 nM
TGI [39]: 4540 nM
GI50 [40]: 433 nM
TGI [40]: 3610 nM
GI50 [41]: 557 nM
TGI [41]: 18300 nM
GI50 [42]: 691 nM
TGI [42]: 20300 nM
GI50 [43]: 496 nM
TGI [43]: 21300 nM
GI50 [44]: 566 nM
TGI [44]: 3330 nM
GI50 [45]: 188 nM
TGI [45]: 586 nM
GI50 [46]: 2890 nM
TGI [46]: > 100000 nM
GI50 [47]: 1980 nM
TGI [47]: 15300 nM
GI50 [48]: 202 nM
TGI [48]: 817 nM
GI50 [49]: 1680 nM
TGI [49]: 14400 nM
GI50 [50]: 324 nM
TGI [50]: 1410 nM
GI50 [51]: 371 nM
TGI [51]: 2470 nM
GI50 [52]: 628 nM
TGI [52]: 6770 nM
GI50 [53]: 190 nM
TGI [53]: 1440 nM
GI50 [54]: 118 nM
TGI [54]: 255 nM
GI50 [55]: 192 nM
TGI [55]: 671 nM
GI50 [56]: 742 nM
TGI [56]: 5190 nM
GI50 [57]: 4540 nM
TGI [57]: > 100000 nM
